In patent publication US12643871B2, “Aryl formamide compound containing chiral sulfur oxide or salt thereof, preparation method, herbicidal composition and use thereof” (Qingdao Kingagroot Chemical Compound Co., Ltd., priority 2019, dated 2026):

How the values were obtained:
Experiment in all cases: Weeding effect in post-emergence stage
Format in all cases: in vivo
Conditions in all cases: 250 g/ha; 2 leaf stage; 15 days after application; fresh weight control rate
[1] = tested on: Amaranthus retroflexus
Outline: (§1)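 Greenhouse pot-grown weeds were sprayed at the 2-leaf stage, 2 weeks after sowing, with compound in acetone/Tween 80 plus 1.5 L/ha methyl oleate EC, at 500, 250, 125, 60, 30 or 15 g/ha. Fresh-weight growth control was scored 15 days later on a 0–5 scale, mean of three repeats.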

[2] = tested on: Digitaria sanguinalis
Outline: as §1

[3] = tested on: Echinochloa crusgali
Outline: as §1

[4] = tested on: Setaria viridis
Outline: as §1

[5] = tested on: Abutilon theophrasti
Outline: as §1

Structure (SMILES) | weeding effect in post-emergence stage, activity level (growth control rate), Amaranthus retroflexus [1] | weeding effect in post-emergence stage, activity level (growth control rate), Digitaria sanguinalis [2] | weeding effect in post-emergence stage, activity level (growth control rate), Echinochloa crusgali [3] | weeding effect in post-emergence stage, activity level (growth control rate), Setaria viridis [4] | weeding effect in post-emergence stage, activity level (growth control rate), Abutilon theophrasti [5]
Cc1nnc(NC(=O)c2ccc(C(F)(F)F)c([S@+]([O-])C(F)(F)C(F)(F)F)c2F)o1 [Compound 31] | 5 (Level 5: growth control rate is above 85%) | 5 (Level 5: growth control rate is above 85%) | 5 (Level 5: growth control rate is above 85%) | 5 (Level 5: growth control rate is above 85%) | 5 (Level 5: growth control rate is above 85%)
Cc1nnc(NC(=O)c2ccc(C(F)(F)F)c([S@+]([O-])C(F)(C(F)(F)F)C(F)(F)F)c2F)o1 [Compound 32] | 5 (Level 5: growth control rate is above 85%) | 5 (Level 5: growth control rate is above 85%) | 5 (Level 5: growth control rate is above 85%) | 5 (Level 5: growth control rate is above 85%) | 5 (Level 5: growth control rate is above 85%)
Cc1nnc(NC(=O)c2ccc(C(F)(F)F)c([S+]([O-])C(F)(F)C(F)(F)C(F)(F)F)c2F)o1 (stereo not drawn) [Compound 33] | 5 (Level 5: growth control rate is above 85%) | 5 (Level 5: growth control rate is above 85%) | 5 (Level 5: growth control rate is above 85%) | 5 (Level 5: growth control rate is above 85%) | 5 (Level 5: growth control rate is above 85%)
Cc1nnc(NC(=O)c2ccc(C(F)(F)F)c([S@+]([O-])CCCC(F)(F)F)c2F)o1 [Compound 34] | 5 (Level 5: growth control rate is above 85%) | 5 (Level 5: growth control rate is above 85%) | 5 (Level 5: growth control rate is above 85%) | 5 (Level 5: growth control rate is above 85%) | 5 (Level 5: growth control rate is above 85%)
Cc1nnc(NC(=O)c2ccc(C(F)(F)F)c([S@+]([O-])CCC(F)(F)C(F)(F)F)c2F)o1 [Compound 35] | 5 (Level 5: growth control rate is above 85%) | 5 (Level 5: growth control rate is above 85%) | 5 (Level 5: growth control rate is above 85%) | 5 (Level 5: growth control rate is above 85%) | 5 (Level 5: growth control rate is above 85%)
Cc1nnc(NC(=O)c2ccc(C(F)(F)F)c([S@+]([O-])CCC(F)(C(F)(F)F)C(F)(F)F)c2F)o1 [Compound 36] | 5 (Level 5: growth control rate is above 85%) | 5 (Level 5: growth control rate is above 85%) | 5 (Level 5: growth control rate is above 85%) | 5 (Level 5: growth control rate is above 85%) | 5 (Level 5: growth control rate is above 85%)
Cc1nnc(NC(=O)c2ccc(C(F)(F)F)c([S@+]([O-])CC(C)Cl)c2F)o1 (stereo partly drawn) [Compound 38] | 5 (Level 5: growth control rate is above 85%) | 5 (Level 5: growth control rate is above 85%) | 5 (Level 5: growth control rate is above 85%) | 5 (Level 5: growth control rate is above 85%) | 5 (Level 5: growth control rate is above 85%)
Cc1nnc(NC(=O)c2ccc(C(F)(F)F)c([S@+]([O-])CCCC#N)c2F)o1 [Compound 53] | 5 (Level 5: growth control rate is above 85%) | 5 (Level 5: growth control rate is above 85%) | 5 (Level 5: growth control rate is above 85%) | 5 (Level 5: growth control rate is above 85%) | 5 (Level 5: growth control rate is above 85%)
Cc1nnc(NC(=O)c2ccc(C(F)(F)F)c([S@+]([O-])CCCO)c2F)o1 [Compound 55] | 5 (Level 5: growth control rate is above 85%) | 5 (Level 5: growth control rate is above 85%) | 5 (Level 5: growth control rate is above 85%) | 5 (Level 5: growth control rate is above 85%) | 5 (Level 5: growth control rate is above 85%)
Cc1nnc(NC(=O)c2ccc(C(F)(F)F)c([S@+]([O-])CC(C)O)c2F)o1 (stereo partly drawn) [Compound 56] | 5 (Level 5: growth control rate is above 85%) | 5 (Level 5: growth control rate is above 85%) | 5 (Level 5: growth control rate is above 85%) | 5 (Level 5: growth control rate is above 85%) | 5 (Level 5: growth control rate is above 85%)
Cc1nnc(NC(=O)c2ccc(C(F)(F)F)c([S@+]([O-])CCCN)c2F)o1 [Compound 57] | 5 (Level 5: growth control rate is above 85%) | 5 (Level 5: growth control rate is above 85%) | 5 (Level 5: growth control rate is above 85%) | 5 (Level 5: growth control rate is above 85%) | 5 (Level 5: growth control rate is above 85%)
CCOC[S+]([O-])c1c(C(F)(F)F)ccc(C(=O)Nc2nnc(C)o2)c1F (stereo not drawn) [Compound 70] | 5 (Level 5: growth control rate is above 85%) | 5 (Level 5: growth control rate is above 85%) | 5 (Level 5: growth control rate is above 85%) | 5 (Level 5: growth control rate is above 85%) | 5 (Level 5: growth control rate is above 85%)
